Laboratory results reported in patent US20040167459A1, “Methods and systems for controlling and/or increasing iontophoretic flux” (priority 2003, published 2004).
Where two headings read alike, the source gives them in different places.

Legend:
[1] = rabbit sclera
Protocol: (§1) FIG. 1 schematically depicts the setup employed to carry out human epidermal membrane (HEM) iontophoretic experiments described below. Scleral experiments were conducted using a simple side-by-side diffusion apparatus known to one of ordinary skill in the art. Conductive silver paint was purchased from Ladd Research Technologies (Williston, Vt.) and silver foil from EM-Science (Gibbstown, N.J.). Silver chloride powder, phosphate buffered saline (PBS, pH 7.4) tablets were purchased from Sigma (St. Louis, Mo.). ^14C-sodium salicylate was purchased from ARC (St. Louis, Mo.) and non-radiolabeled sodium salicylate from Sigma. Ultimate Gold® scintillation cocktail was purchased from Packard (Meriden, Conn.) and liquid scintillation counting was performed by a Packard TriCarb Model 1900 TR liquid scintillation analyzer. A custom built AC waveform generator power supply (EM-Tech Electronics, Lindon Utah) was used as the permeabilzation power supply for skin studies. The DC driving force for the skin studies was a 9 V battery (Duracell) combined with a fixed resistor. For scleral studies, there was no permeabilization source needed and all iontophoresis was conducted using a Phoresor PM-800 (Iomed, Inc., Salt Lake City, Utah). Human epidermal membrane was obtained from licensed sources and experiments were conducted under local IRB approval. Scleral tissue was obtained from freshly euthanized rabbit cadavers under local IACUC approval. All water was >18 MΩ prepared by the Milli-Q process. Ionac® MA-3475 (Sybron Chemical, Inc., Birmingham, N.J.) was pre-loaded with sodium salicylate by vigorously stirring the membranes in a 0.15 M sodium salicylate solution spiked with the radiolabel. Loading was considered complete when the DPM counts in the loading solution varied by less than 10% over a 12 hour period. The MA-3475 membranes were assembled in a group of five membranes and placed in the diffusion cell setup.
Scleral transport experiments were conducted using a side-by-side type diffusion cell with an open diffusional area of 0.2 cm^2. The cells were separated by a piece of excised scleral tissue from adult rabbits. The diffusion cells were assembled with the conjunctival side facing the donor compartment.
The DC iontophoresis driving electrodes were prepared by dipping a silver foil strip into a 1:1 (w/w) mixture of conductive silver paint and finely ground silver chloride. After dipping, the electrodes were hung and allowed to cure at room temperature overnight.
(§2) The receiver compartment was filled with 0.15 M PBS. In each experiment, the donor compartment contained 0.15 M sodium salicylate in water spiked with 25 nCi/ml ^14C-sodium salicylate.
Direct current DC was applied at currents of 0.5, 1, and 2 mA with a Phoresor. Every 30 minutes, the entire volume of the receiver solution was removed, mixed with scintillation cocktail, and analyzed by liquid scintillation counting. All experiments were conducted in triplicate.
The amount of ^14C-salicylate transported across the membrane was plotted as a function of time. Permeabilities were determined from the equations (8) and (9) and plotted and analyzed as in Example 1.

[2] = HEM; for Transference number: 0.5 mA DC
Protocol: as §1
Permeabilized skin transport experiments were conducted using a side-by-side type diffusion cell with an open diffusional area of 0.85 Cm^2. The cells were separated by a piece of dermatomed, heat-separated human epidermal membrane with the stratum corneum facing the donor compartment.
The DC iontophoresis driving electrodes were prepared by dipping a silver foil strip into a 1:1 (w/w) mixture of conductive silver paint and finely ground silver chloride. After dipping, the electrodes were hung and allowed to cure at room temperature overnight. The AC permeabilizing electrodes were made by mechanically drilling holes into a piece of silver foil and electro-coating the perforated silver foil with AgCl by submersion in a saturated KCl solution and passing a 1 mA current for 10 minutes.
as §2
A 1000 Hz AC potential was applied to decrease and maintain the skin resistance to 2 and 0.5 kΩ and a 9 V battery was connected to a fixed resistor in series to yield a direct current of 0.5 mA. Every 30 minutes, the entire volume of the receiver solution was removed, mixed with scintillation cocktail, and analyzed by liquid scintillation counting. All experiments were conducted at least in duplicate.
The amount of ^14C-salicylate transported across the membrane was plotted as a function of time. Permeabilities were determined from the following equations: [formula]
where J is the flux, Q is the amount of solute transported across the membrane, A is the area of the exposed membrane, t is time, P is the permeability, and CD is the concentration of the solute in the donor solution.
Permeabilities were plotted as a function of time and the slope of the best-fit line to the steady state portion of the curve was determined using regression analysis.

O=C([O-])c1ccccc1O.[Na+] [Salicylate, sodium salicylate]
increase of transference number by the permselective membrane [1]: between two- and three-fold | Salicylate Flux ([1]; DC 0.4 mA, PSM +): 21 ± 0.3 µg/min | Transference number ([1]; DC 0.4 mA, PSM +): 0.675 ± 0.073 | Salicylate Flux ([1]; DC 0.4 mA, PSM none): 13 ± 0.1 µg/min | Transference number ([1]; DC 0.4 mA, PSM none): 0.385 ± 0.007 | Salicylate Flux ([1]; DC 1.0 mA, PSM +): 48 ± 1.0 µg/min | Transference number ([1]; DC 1.0 mA, PSM +): 0.563 ± 0.013 | Salicylate Flux ([1]; DC 1.0 mA, PSM none): 21 ± 0.2 µg/min | Transference number ([1]; DC 1.0 mA, PSM none): 0.235 ± 0.007 | Salicylate Flux ([1]; DC 2.0 mA, PSM +): 109 ± 7.0 µg/min | Transference number ([1]; DC 2.0 mA, PSM +): 0.650 ± 0.048 | Salicylate Flux ([1]; DC 2.0 mA, PSM none): 36 ± 2.0 µg/min | Transference number ([1]; DC 2.0 mA, PSM none): 0.210 ± 0.014 | enhancement of salicylate flux by the permselective membrane ([1]; depending on current level): two- to three-fold | current carried by the drug ([1]; with permselective membrane): approximately 65% | Transference number ([2]; AC + DC, 0.5 kΩ, PSM +): 0.32 ± 0.03 | Transference number ([2]; AC + DC, 0.5 kΩ, PSM none): 0.12 ± 0.01 | Transference number ([2]; AC + DC, 2 kΩ, PSM +): 0.16 ± 0.03 | Transference number ([2]; AC + DC, 2 kΩ, PSM none): 0.12 ± 0.01 | Transference number ([2]; DC only, PSM +): 0.18 ± 0.03 | Transference number ([2]; DC only, PSM none): 0.13 ± 0.01 | increase in current carried by the drug due to permselective membrane ([2]; AC permeabilization, target resistance 2 kΩ): about 30% | current carried by the drug ([2]; AC permeabilization, target resistance 2 kΩ, no permselective membrane): 12% | current carried by the drug ([2]; AC permeabilization, target resistance 2 kΩ, permselective membrane present): 16% | gain in current carried by the drug due to permselective material ([2]; purely DC iontophoresis): about 40% | current carried by the drug ([2]; purely DC iontophoresis, permselective material present): 18% | current carried by the drug ([2]; purely DC iontophoresis, without permselective material): 13% | increase in electrical transference efficiency due to permselective membrane ([2]; target resistance 0.5 kΩ): ~300% | electrical transference efficiency ([2]; target resistance 0.5 kΩ, with permselective membrane): 32% | electrical transference efficiency ([2]; target resistance 0.5 kΩ, without permselective membrane): 12%
